Source: US20250277012A1 (Protagonist Therapeutics, Inc., priority 2021, published 2025)
pIC50: −log10 of the molar value. Where two headings read alike, the source gives them in different places. Starred links: 1 amine or outer side, 2 acyl side, 3 side chain; linkers in the order of their positions; H or OH if unused. Positions of bridges follow the written chain, without caps; N, C: chain ends. Non-standard residues stand in square brackets, D forms with d. Residues, ends and D or L forms follow the SMILES beside them. Groups on a side chain read outwards from the residue. *: point of attachment. X1 = C[N+](C)(CCNC(=O)CCCCCCCCCCCCCCCCC(=O)O)CC(=O)*; X5 = CCCCCCCCCCCCCCCC(=O)NCC[N+](C)(C)CC(=O)*; C18 diacid = O=C(O)CCCCCCCCCCCCCCCCC(=O)*; Dip = N[C@H](C(=O)O)C(c1ccccc1)c1ccccc1; X6 = O=C([C@H](CC1N=NN=N1)N[*:1])[*:2]; NMeY = CN[C@@H](Cc1ccc(O)cc1)C(=O)O; Palmitoyl = CCCCCCCCCCCCCCCC(=O)*; β3hF = N[C@H](CC(=O)O)Cc1ccccc1; NMeK = CN[C@@H](CCCCN)C(=O)O; Pen = CC(C)(S)[C@H](N)C(=O)O; αMeK = C[C@](N)(CCCCN)C(=O)O; Isovaleryl = CC(C)CC(=O)*; Dap = NC[C@H](N)C(=O)O; AEEA = NCCOCCOCC(=O)O; Ahx = NCCCCCC(=O)O

Key:
ferroportin [1] = target: T1, ferroportin (Homo sapiens, UniProt Q9NP59); assay: FPN activity assay: ferroportin-GFP internalization/degradation in HEK293 cells; format: cell-based; parameters: expressed in transfected cells; details: read-out: FPN IC50
T1 sequence (Q9NP59 1-571): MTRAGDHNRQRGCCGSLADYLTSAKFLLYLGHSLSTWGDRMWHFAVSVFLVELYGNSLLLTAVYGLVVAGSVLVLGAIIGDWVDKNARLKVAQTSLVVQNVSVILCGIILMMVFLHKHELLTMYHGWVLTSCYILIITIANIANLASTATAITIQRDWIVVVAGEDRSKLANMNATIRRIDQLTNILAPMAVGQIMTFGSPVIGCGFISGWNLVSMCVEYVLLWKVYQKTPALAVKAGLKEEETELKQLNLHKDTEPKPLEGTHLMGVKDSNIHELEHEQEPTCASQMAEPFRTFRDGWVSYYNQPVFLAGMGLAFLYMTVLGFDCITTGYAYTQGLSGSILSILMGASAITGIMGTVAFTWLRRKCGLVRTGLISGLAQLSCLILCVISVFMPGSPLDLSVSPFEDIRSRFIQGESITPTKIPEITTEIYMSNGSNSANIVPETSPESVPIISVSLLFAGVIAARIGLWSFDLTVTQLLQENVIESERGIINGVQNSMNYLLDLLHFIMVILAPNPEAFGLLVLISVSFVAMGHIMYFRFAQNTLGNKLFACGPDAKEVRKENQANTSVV
Description: Following internalization, the ferroporin protein is degraded.
A retro inverse peptide is a peptide with a reversed sequence in all D amino acids. An example is that Hy-Glu-Thr-His-NH2 becomes Hy-DHis-DThr-DGlu-NH2. The EC50 of these reference compounds for ferroportin internalization/degradation was determined according to the FPN activity assay described above. These peptides served as control standards.

ferroportin [2] = target: T1, ferroportin; assay: T47D cell-based ferroportin internalization assay in presence of mouse serum albumin (MSA); parameters: a human breast carcinoma adherent cell line which endogenously expresses ferroportin; host or cells: T47D
Procedure, shortened: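 Peptide potency for inducing ferroportin internalization was measured in T47D cells in the presence of serum albumin. Cells grown in RPMI with fetal bovine serum were seeded in 96-well plates at 80-100 k cells per well in 100 ul and rested overnight. Dilution series of test peptides were preincubated 30 min at room temperature, then added to the cells after the medium was aspirated.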

[3] = ferroportin-GFP HEK293 cells, at least 18 hours
[4] = T47D cells, 0.5% mouse serum albumin, 1 hr incubation
[5] = ferroportin-GFP internalization/degradation, HEK293 cells, Table 6E
[6] = T47D internalization assay in presence of mouse serum albumin (MSA), Table 6E

SMILES	DC50 (ferroportin [1]; [5]) [nM]	pIC50 (ferroportin [2]; [6])	further results
CCCCCCCCCCCCCCCC(=O)NCCCCCC(=O)NCCCC[C@H](NC(=O)[C@@H]1CSSC[C@H](NC(=O)[C@@H]2CCCN2C(=O)[C@@H](NC(=O)[C@H](Cc2c[nH]cn2)NC(=O)[C@@H](NC(=O)[C@H](CCC(=O)O)NC(=O)CC(C)C)[C@@H](C)O)C(c2ccccc2)c2ccccc2)C(=O)N1)C(=O)N[C@H](CC(=O)N[C@H](CCCCN)C(N)=O)Cc1ccccc1 [Compd 39] (Isovaleryl-ETH[Dip]PCCK([Ahx-Palmitoyl])[β3hF][dK]-NH2; disulfide 6-7)	–	–	DC50 (ferroportin [1]; [3]): 10 to 100 nM; pIC50 (ferroportin [2]; [4]): 8.00 to 9.00
CCCCCCCCCCCCCCCC(=O)NCCCCCC(=O)NCCCC[C@H](NC(=O)C[C@H](Cc1ccccc1)NC(=O)[C@@H](CCCCN)NC(=O)[C@@H](NC(=O)[C@H](C)NC(=O)[C@@H]1CSSC[C@H](NC(=O)[C@H](CCC(=O)O)NC(=O)CC(C)C)C(=O)N[C@@H](Cc2c[nH]cn2)C(=O)N[C@@H](C(c2ccccc2)c2ccccc2)C(=O)N1)[C@@H](C)CC)C(=O)N[C@H](CCCCN)C(=O)N[C@@H](C)C(N)=O [Compd 45] (Isovaleryl-ECH[Dip]CAI[dK][β3hF]K([Ahx-Palmitoyl])[dK]A-NH2; disulfide 2-5)	–	–	DC50 (ferroportin [1]; [3]): 10 to 100 nM; pIC50 (ferroportin [2]; [4]): 8.00 to 9.00
CC(C)CC(=O)N[C@@H](CCC(=O)O)C(=O)N[C@H](C(=O)N[C@@H](Cc1c[nH]cn1)C(=O)N[C@H](C(=O)N1CCC[C@H]1C(=O)N[C@H]1CSSC[C@@H](C(=O)N[C@@H](CCCCNC(=O)CCCCCNC(=O)C[N+](C)(C)CCNC(=O)CCCCCCCCCCCCCCCCC(=O)O)C(=O)N[C@H](CC(=O)N[C@H](CCCCN)C(N)=O)Cc2ccccc2)NC1=O)C(c1ccccc1)c1ccccc1)[C@@H](C)O [compound 312] (Isovaleryl-ETH[Dip]PCCK([Ahx-X1])[β3hF][dK]-NH2; disulfide 6-7)	10 to 100	7.00 to 8.00	–
COC(=O)CC[C@H](NC(=O)CC(C)C)C(=O)N[C@H](C(=O)N[C@@H](Cc1c[nH]cn1)C(=O)N[C@H](C(=O)N1CCC[C@H]1C(=O)N[C@H]1CSSC[C@@H](C(=O)N[C@@H](CCCCNC(=O)COCCOCCNC(=O)COCCOCCNC(=O)[C@H](CN)NC(=O)CCCCCCCCCCCCCCCCC(=O)O)C(=O)N[C@H](CC(=O)N[C@H](CCCCN)C(N)=O)Cc2ccccc2)NC1=O)C(c1ccccc1)c1ccccc1)[C@@H](C)O [Compd ID 42, Isovaleric Acid-[Glu_OMe]-T-H-[Dpa]-P-[Cys]-[Cys]-[Lys(1PEG2_1PEG2_Dap_C18_Diacid)]-[bhPhe]-[(D)Lys]-NH2] (Isovaleryl-E(OMe)TH[Dip]PCCK([AEEA-AEEA-Dap-C18 diacid])[β3hF][dK]-NH2; disulfide 6-7)	–	–	DC50 (ferroportin [1]; [3]): 10 to 100 nM; pIC50 (ferroportin [2]; [4]): 7.00 to 8.00
CC(C)CC(=O)N[C@@H](CCC(=O)O)C(=O)N[C@H](C(=O)N[C@@H](Cc1c[nH]cn1)C(=O)N[C@H](C(=O)N1CCC[C@H]1C(=O)N[C@H]1CSSC[C@@H](C(=O)N[C@@](C)(CCCCNC(=O)COCCOCCNC(=O)COCCOCCNC(=O)[C@H](CN)NC(=O)CCCCCCCCCCCCCCCCC(=O)O)C(=O)N[C@H](CC(=O)N[C@H](CCCCN)C(N)=O)Cc2ccccc2)NC1=O)C(c1ccccc1)c1ccccc1)[C@@H](C)O [compound 302] (Isovaleryl-ETH[Dip]PCC[αMeK]([AEEA-AEEA-Dap-C18 diacid])[β3hF][dK]-NH2; disulfide 6-7)	10 to 100	7.00 to 8.00	–
CC(C)CC(=O)N[C@@H](CCC(=O)O)C(=O)N[C@H](C(=O)N[C@@H](Cc1c[nH]cn1)C(=O)N[C@H](C(=O)N1CCC[C@H]1C(=O)N[C@H]1CSSC[C@@H](C(=O)N(C)[C@@H](CCCCNC(=O)COCCOCCNC(=O)COCCOCCNC(=O)[C@H](CN)NC(=O)CCCCCCCCCCCCCCCCC(=O)O)C(=O)N[C@H](C(=O)N[C@H](CCCCN)C(N)=O)C(c2ccccc2)c2ccccc2)NC1=O)C(c1ccccc1)c1ccccc1)[C@@H](C)O [compound 293] (Isovaleryl-ETH[Dip]PCC[NMeK]([AEEA-AEEA-Dap-C18 diacid])[Dip][dK]-NH2; disulfide 6-7)	1 to 10	7.00 to 8.00	–
CC(C)CC(=O)N[C@@H](CCC(=O)O)C(=O)N[C@H](C(=O)N[C@@H](Cc1c[nH]cn1)C(=O)N[C@H](C(=O)N1CCC[C@H]1C(=O)N[C@H]1CSSC(C)(C)[C@@H](C(=O)N[C@@H](CCCCNC(=O)COCCOCCNC(=O)COCCOCCNC(=O)[C@H](CN)NC(=O)CCCCCCCCCCCCCCCCC(=O)O)C(=O)N[C@H](CC(=O)N[C@H](CCCCN)C(N)=O)Cc2ccccc2)NC1=O)C(c1ccccc1)c1ccccc1)[C@@H](C)O [compound 272] (Isovaleryl-ETH[Dip]PC[Pen]K([AEEA-AEEA-Dap-C18 diacid])[β3hF][dK]-NH2; disulfide 6-7)	10 to 100	7.00 to 8.00	–
CCCCCCCCCCCCCCCC(=O)NCC[N+](C)(C)CC(=O)NCCCC[C@H]1C(=O)N[C@@H](C(c2ccccc2)c2ccccc2)C(=O)N[C@@H](C(N)=O)CCCCNC(=O)CC[C@H](NC(=O)CC(C)C)C(=O)N[C@@H]([C@@H](C)O)C(=O)N[C@@H](Cc2c[nH]cn2)C(=O)N[C@@H](C(c2ccccc2)c2ccccc2)C(=O)N2CCC[C@H]2C(=O)N[C@H]2CSSC[C@H](NC2=O)C(=O)N1C [compound 143] (Isovaleryl-ETH[Dip]PCC[NMeK](X5)[Dip][dK]-NH2; lactam 1-10; disulfide 6-7)	–	–	DC50 (ferroportin [1]; Table 6E, ferroportin-GFP internalization/degradation, at least 18 hours incubation): 10 to 100 nM; pIC50 (ferroportin [2]; Table 6E, T47D internalization assay with MSA): 8.00 to 9.00
CC(C)CC(=O)N[C@@H](CC1N=NN=N1)C(=O)N[C@H](C(=O)N[C@@H](Cc1cnc[nH]1)C(=O)N[C@H](C(=O)N1CCC[C@H]1C(=O)N[C@H]1CSSC[C@@H](C(=O)N(C)[C@@H](CCCCNC(=O)COCCOCCNC(=O)COCCOCCNC(=O)[C@H](CN)NC(=O)CCCCCCCCCCCCCCCCC(=O)O)C(=O)N[C@H](CC(=O)N[C@H](CCCCN)C(N)=O)Cc2ccccc2)NC1=O)C(c1ccccc1)c1ccccc1)[C@@H](C)O [compound 288] (Isovaleryl-[X6]TH[Dip]PCC[NMeK]([AEEA-AEEA-Dap-C18 diacid])[β3hF][dK]-NH2; disulfide 6-7)	10 to 100	7.00 to 8.00	–
CC(C)CC(=O)N[C@@H](CCC(=O)O)C(=O)N[C@H](C(=O)N[C@@H](Cc1c[nH]cn1)C(=O)N[C@H](C(=O)N1CCC[C@H]1C(=O)N[C@H]1CSSC[C@@H](C(=O)N(C)[C@@H](CCCCNC(=O)COCCOCCNC(=O)COCCOCCNC(=O)[C@H](CN)NC(=O)CCCCCCCCCCCCCCCCC(=O)O)C(N)=O)NC1=O)C(c1ccccc1)c1ccccc1)[C@@H](C)O [compound 294] (Isovaleryl-ETH[Dip]PCC[NMeK]([AEEA-AEEA-Dap-C18 diacid])-NH2; disulfide 6-7)	10 to 100	7.00 to 8.00	–
COC(=O)CC[C@H](NC(=O)CC(C)C)C(=O)N[C@H](C(=O)N[C@@H](Cc1c[nH]cn1)C(=O)N[C@H](C(=O)N1CCC[C@H]1C(=O)N[C@H]1CSSC[C@@H](C(=O)N(C)[C@@H](CCCCNC(=O)COCCOCCNC(=O)COCCOCCNC(=O)[C@H](CN)NC(=O)CCCCCCCCCCCCCCCCC(=O)O)C(=O)N[C@H](CC(=O)N[C@H](CCCCN)C(N)=O)Cc2ccccc2)NC1=O)C(c1ccccc1)c1ccccc1)[C@@H](C)O [compound 305] (Isovaleryl-E(OMe)TH[Dip]PCC[NMeK]([AEEA-AEEA-Dap-C18 diacid])[β3hF][dK]-NH2; disulfide 6-7)	10 to 100	7.00 to 8.00	–
CC(C)CC(=O)N[C@@H](CCC(=O)O)C(=O)N[C@H](C(=O)N[C@@H](Cc1c[nH]cn1)C(=O)N[C@H](C(=O)N1CCC[C@H]1C(=O)N[C@H]1CSSC[C@@H](C(=O)N(C)[C@@H](CCCCNC(=O)COCCOCCNC(=O)COCCOCCNC(=O)[C@H](CN)NC(=O)CCCCCCCCCCCCCCCCC(=O)O)C(=O)N[C@H](CC(N)=O)Cc2ccccc2)NC1=O)C(c1ccccc1)c1ccccc1)[C@@H](C)O [compound 295] (Isovaleryl-ETH[Dip]PCC[NMeK]([AEEA-AEEA-Dap-C18 diacid])[β3hF]-NH2; disulfide 6-7)	10 to 100	7.00 to 8.00	–
CC(C)CC(=O)N[C@@H](CCC(=O)O)C(=O)N[C@H](C(=O)N[C@@H](Cc1c[nH]cn1)C(=O)N[C@H](C(=O)N1CCC[C@H]1C(=O)N[C@H]1CSSC[C@@H](C(=O)N(C)[C@@H](CCCCNC(=O)COCCOCCNC(=O)COCCOCCNC(=O)[C@H](CN)NC(=O)CCCCCCCCCCCCCCCCC(=O)O)C(=O)N[C@H](CC(=O)N[C@H](CCCCN)C(=O)N(C)[C@@H](Cc2ccc(O)cc2)C(N)=O)Cc2ccccc2)NC1=O)C(c1ccccc1)c1ccccc1)[C@@H](C)O [compound 259] (Isovaleryl-ETH[Dip]PCC[NMeK]([AEEA-AEEA-Dap-C18 diacid])[β3hF][dK][NMeY]-NH2; disulfide 6-7)	10 to 100	7.00 to 8.00	–
